According to patent US7803801B2, “Aminopyridine compounds having Syk inhibitory activity” (Japan Tobacco, Inc., priority 2005, dated 2010):
Where a name gives a salt, the structure may show the parent alone. Read-outs that look alike come from different tables or passages of the source.

Tests used:
[1] = molecular target: GST-Syk Full Protein (human) (Homo sapiens, UniProt P43405); test: Syk kinase inhibition test (HTRF method); format: biochemical
How it was run: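 Human GST-Syk full-length (6.4 nM) phosphorylated biotin-EDPDYEWPSA-NH2 (250 nM) with 100 μM ATP in HEPES pH 7.0/MgCl2 buffer, 2% DMSO, 30 min at room temperature. EDTA stop, then HTRF detection (streptavidin-XL665, Eu anti-phosphotyrosine) after 1 h; 665/620 ratio read.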

[2] = tested on: cultured human mast cells; test: Degranulation inhibition test using cultured human mast cells (IgE cross-linking, β-Hexosaminidase release); format: cell-based; conditions: Mast cell, cultured human mast cells, read-out: human degranulation ave. IC50
How it was run: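 CD34+ cord-blood cells cultured ≥8 weeks with SCF/IL-6/IL-3; FcεRI primed 5 days with rhIL-4 (1 ng/mL) and hIgE (0.5 μg/mL). Compound (0.1% DMSO) preincubated 10 min at 37 °C, then anti-IgE (final 10 μg/mL) 30 min; released β-hexosaminidase read at 405 nm versus total lysate, IC50 (M).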

[3] = HTRF, 100 μM ATP, 30 min room temperature, average, read-out: sykHTRF ave IC50
[4] = anti-hIgE stimulation, β-Hexosaminidase index, average
[5] = Tables 1-x, compounds A, read-out: sykHTRF ave IC50
[6] = Tables 2-x, thiophene compounds B, read-out: sykHTRK ave IC50
[7] = Tables 2-x, thiophene compounds B

Row | IC50 [1, 3] | IC50 [2, 4] | Structure (SMILES) | further results
1 | < 0.1 µM | 0.1 to 1 µM | CC(=O)N[C@@H](C)c1ncc(-c2cccc(Nc3cc(-c4ccncc4)ccn3)n2)s1 [Compound A-79, N—((S)-1-{5-[6-([4,4′]bipyridinyl-2-ylamino)pyridin-2-yl]thiazol-2-yl}ethyl)acetamide] | 
2 | 0.1 to 1 µM | > 1 µM | Cc1ccnc(Nc2cccc(-c3cnc(CNc4ccc(CC(=O)O)cc4)s3)n2)c1 [Compound A-262] | 
3 | 0.1 to 1 µM | > 1 µM | Cc1ccnc(Nc2cccc(-c3cnc(CCc4ccc(NS(C)(=O)=O)cc4)s3)n2)c1 [Compound A-221] | 
4 | 0.1 to 1 µM | > 1 µM | Cc1ccnc(Nc2cccc(-c3cnc(C(=O)NC(CO)CO)s3)n2)c1 [Compound A-72] | 
5 |  |  | Cc1ccnc(Nc2cccc(-c3cnc(N4CCCC(C(=O)O)C4)s3)n2)c1 (stereo not drawn) [Compound A-474, 1-{5-[6-(4-methylpyridin-2-ylamino)pyridin-2-yl]thiazol-2-yl}piperidine-3-carboxylic acid] | IC50 [1, 5]: < 0.1 µM; IC50 ([2]; Tables 1-x, compounds A): > 1 µM
6 | < 0.1 µM | 0.1 to 1 µM | Cc1ccnc(Nc2cccc(-c3cnc([C@@H]4COC(=O)N4)s3)n2)c1 [Compound A-14, (S)-4-{5-[6-(4-methylpyridin-2-ylamino)pyridin-2-yl]thiazol-2-yl}oxazolidin-2-one] | 
7 |  |  | CC(=O)c1ccc(-c2cccc(Nc3cc(OC(C)C)ncn3)n2)s1 [Compound B-30, 1-{5-[6-(6-isopropoxypyrimidin-4-ylamino)pyridin-2-yl]thiophen-2-yl}ethanone] | IC50 [1, 6]: < 0.1 µM; IC50 [2, 7]: > 1 µM
8 |  |  | Cc1ccnc(Nc2cccc(-c3cnc(N(C)C4CCN(C(=O)c5ccc(O)cc5)CC4)s3)n2)c1 [Compound A-513, (4-hydroxyphenyl)-[4-(N-methyl-N-{5-[6-(4-methylpyridin-2-ylamino)pyridin-2-yl]thiazol-2-yl}amino)piperidin-1-yl]methanone] | IC50 [1, 5]: < 0.1 µM; IC50 ([2]; Tables 1-x, compounds A): 0.1 to 1 µM
9 |  |  | CC(=O)N[C@H]1CN(C(=O)COCc2ncc(-c3cccc(Nc4cc(C)ccn4)n3)s2)C[C@@H]1O [Compound A-411] | IC50 [1, 5]: > 1 µM; IC50 ([2]; Tables 1-x, compounds A): > 1 µM
10 | 0.1 to 1 µM | > 1 µM | Cc1ccnc(Nc2cccc(-c3cnc(CCC4CCN(C(=O)C5CCC(O)CC5)CC4)s3)n2)c1 (stereo not drawn) [Compound A-294] | 
11 | < 0.1 µM | 0.1 to 1 µM | Cc1ccnc(Nc2cccc(-c3cnc([C@H]4CC[C@H](C(=O)N5CCC(N)C5)CC4)s3)n2)c1 (stereo partly drawn) [Compound A-311, (3-aminopyrrolidin-1-yl)-(trans-4-{5-[6-(4-methylpyridin-2-ylamino)pyridin-2-yl]thiazol-2-yl}cyclohexyl)methanone trihydrochloride] | 
12 | 0.1 to 1 µM | 0.1 to 1 µM | O=C(O)Cc1ccnc(Nc2cccc(-c3cnc([C@@H]4CCC(=O)N4)s3)n2)c1 [Compound A-340] | 
13 | < 0.1 µM | > 1 µM | Cc1ccnc(Nc2cccc(-c3cnc(CCCCCN)s3)n2)c1 [Compound A-128, 5-{5-[6-(4-methylpyridin-2-ylamino)pyridin-2-yl]thiazol-2-yl}pentylamine] | 
14 |  |  | Cc1ccnc(Nc2cccc(-c3ccc(C(=O)NCC(O)CO)s3)n2)c1 (stereo not drawn) [Compound B-102] | IC50 [1, 6]: 0.1 to 1 µM; IC50 [2, 7]: > 1 µM
15 |  |  | CN(c1ncc(-c2cccc(Nc3cc(Cl)ccn3)n2)s1)C1CCN(C(=O)CO)CC1 [Compound A-537, 1-[4-(N-{5-[6-(4-chloropyridin-2-ylamino)pyridin-2-yl]thiazol-2-yl}-N-methylamino)piperidin-1-yl]-2-hydroxyethanone] | IC50 [1, 5]: < 0.1 µM; IC50 ([2]; Tables 1-x, compounds A): 0.1 to 1 µM
16 |  |  | CC(=O)c1ccnc(Nc2cccc(-c3cnc(N4CCC(C(N)=O)CC4)s3)n2)c1 [Compound A-543, 1-{5-[6-(4-acetylpyridin-2-ylamino)pyridin-2-yl]thiazol-2-yl}piperidine-4-carboxamide] | IC50 [1, 5]: < 0.1 µM; IC50 ([2]; Tables 1-x, compounds A): 0.1 to 1 µM
17 |  |  | Cc1ccnc(Nc2cccc(-c3ccc(C(=O)N4CCC[C@H]4CO)s3)n2)c1 [Compound B-80] | IC50 [1, 6]: 0.1 to 1 µM; IC50 [2, 7]: 0.1 to 1 µM
18 |  |  | Cc1ccnc(Nc2cccc(-c3ccc(C(=O)NCCN)s3)n2)c1 [Compound B-43, N-(2-aminoethyl)-5-[6-(4-methylpyridin-2-ylamino)pyridin-2-yl]thiophene-2-carboxamide] | IC50 [1, 6]: < 0.1 µM; IC50 [2, 7]: > 1 µM
19 | 0.1 to 1 µM | 0.1 to 1 µM | CC(=O)N[C@@H](C)c1ncc(-c2cccc(Nc3cc(OCc4ccccc4)ccn3)n2)s1 [Compound A-80] | 
20 |  |  | CNC(=O)C1(C)CCN(c2ncc(-c3cccc(Nc4cc(C)ccn4)n3)s2)CC1 [Compound A-501, N-methyl-4-methyl-1-{5-[6-(4-methylpyridin-2-ylamino)pyridin-2-yl]thiazol-2-yl}piperidine-4-carboxamide] | IC50 [1, 5]: < 0.1 µM; IC50 ([2]; Tables 1-x, compounds A): 0.1 to 1 µM
21 |  |  | Cc1ccnc(Nc2cccc(-c3ccc(C#N)s3)n2)c1 [Compound B-59] | IC50 [1, 6]: 0.1 to 1 µM; IC50 [2, 7]: > 1 µM

Row | IC50 [1, 3] | IC50 [2, 4] | Structure (SMILES) | further results
22 | < 0.1 µM | 0.1 to 1 µM | COc1ccnc(Nc2cccc(-c3cnc([C@@H]4CCC(=O)N4)s3)n2)c1 [Compound A-319, (S)-5-{5-[6-(4-methoxypyridin-2-ylamino)pyridin-2-yl]thiazol-2-yl}pyrrolidin-2-one] | 
23 |  |  | Cc1ccnc(Nc2cccc(-c3cnc(N(C)CC(=O)NCCC(=O)O)s3)n2)c1 [Compound A-570, 3-[2-(N-methyl-N-{5-[6-(4-methylpyridin-2-ylamino)pyridin-2-yl]thiazol-2-yl}amino)acetylamino]propionic acid dihydrochloride] | IC50 [1, 5]: < 0.1 µM; IC50 ([2]; Tables 1-x, compounds A): > 1 µM
24 | 0.1 to 1 µM | > 1 µM | CC(=O)N1C[C@H](O)C[C@H]1c1ncc(-c2cccc(Nc3cc(C)ccn3)n2)s1 [Compound A-95] | 
25 | < 0.1 µM | 0.1 to 1 µM | Cc1ccnc(Nc2cccc(-c3cnc([C@H]4CC[C@H](C#N)CC4)s3)n2)c1 [Compound A-316, trans-4-{5-[6-(4-methylpyridin-2-ylamino)pyridin-2-yl]thiazol-2-yl}cyclohexanecarbonitrile] | 
26 |  |  | Cc1ccnc(Nc2cccc(-c3cnc(N4CC[C@@H](O)C4)s3)n2)c1 [Compound A-479, (R)-1-{5-[6-(4-methylpyridin-2-ylamino)pyridin-2-yl]thiazol-2-yl}pyrrolidin-3-ol] | IC50 [1, 5]: < 0.1 µM; IC50 ([2]; Tables 1-x, compounds A): 0.1 to 1 µM
27 | 0.1 to 1 µM | 0.1 to 1 µM | Cc1ccnc(Nc2cccc(-c3cnc(CCNS(C)(=O)=O)s3)n2)c1 [Compound A-261] | 
28 | 0.1 to 1 µM | > 1 µM | Cc1ccnc(Nc2cccc(-c3cnc([C@H](C)N(C)C(=O)OC(C)(C)C)s3)n2)c1 [Compound A-50] | 
29 | 0.1 to 1 µM | 0.1 to 1 µM | CC(=O)N[C@@H](C)c1ncc(-c2cccc(Nc3cc(C4(C)OCCO4)ccn3)n2)s1 [Compound A-199] | 
30 |  |  | COC(=O)c1sc(-c2cccc(Nc3cc(C)ccn3)n2)cc1C [Compound B-36] | IC50 [1, 6]: 0.1 to 1 µM; IC50 [2, 7]: > 1 µM
31 | > 1 µM | > 1 µM | CC(=O)Nc1nc([C@H](C)NC(C)=O)sc1-c1cccc(Nc2cc(C)ccn2)n1 [Compound A-119] | 
32 | < 0.1 µM | 0.1 to 1 µM | COc1ccnc(Nc2cccc(-c3cnc([C@H]4CC[C@H](C(=O)O)CC4)s3)n2)c1 [Compound A-188, trans-4-{5-[6-(4-methoxypyridin-2-ylamino)pyridin-2-yl]thiazol-2-yl}cyclohexanecarboxylic acid] | 
33 |  |  | CC(=O)NCC1CCN(c2ncc(-c3cccc(Nc4cc(C)ccn4)n3)s2)CC1 [Compound A-487, N-(1-{5-[6-(4-methylpyridin-2-ylamino)pyridin-2-yl]thiazol-2-yl}piperidin-4-ylmethyl)acetamide] | IC50 [1, 5]: < 0.1 µM; IC50 ([2]; Tables 1-x, compounds A): 0.1 to 1 µM
34 | < 0.1 µM | 0.1 to 1 µM | Cc1ccnc(Nc2cccc(-c3cnc(CCO)s3)n2)c1 [Compound A-205, 2-{5-[6-(4-methylpyridin-2-ylamino)pyridin-2-yl]thiazol-2-yl}ethanol] | 
35 |  |  | Cc1ccnc(Nc2cccc(-c3cnc(N4CCC(CC(=O)NCCO)CC4)s3)n2)c1 [Compound A-506, N-(2-hydroxyethyl)-2-(1-{5-[6-(4-methylpyridin-2-ylamino)pyridin-2-yl]thiazol-2-yl}piperidin-4-yl)acetamide] | IC50 [1, 5]: < 0.1 µM; IC50 ([2]; Tables 1-x, compounds A): 0.1 to 1 µM
36 |  |  | COc1ccnc(Nc2cccc(-c3cnc(N4CCC[C@H]4C(N)=O)s3)n2)c1 [Compound A-541, (S)-1-{5-[6-(4-methoxypyridin-2-ylamino)pyridin-2-yl]thiazol-2-yl}pyrrolidine-2-carboxamide] | IC50 [1, 5]: < 0.1 µM; IC50 ([2]; Tables 1-x, compounds A): 0.1 to 1 µM
37 | > 1 µM | > 1 µM | CC(=O)N[C@@H](C)c1ncc(-c2cccc(Nc3cc(OCCN(C)C)ccn3)n2)s1 [Compound A-166] | 
38 | 0.1 to 1 µM | 0.1 to 1 µM | COC1CCN(C(=O)[C@H]2CC[C@H](c3ncc(-c4cccc(Nc5cc(C)ccn5)n4)s3)CC2)CC1 [Compound A-280] | 
39 |  |  | Cc1ccnc(Nc2cccc(-c3ccc(C)s3)n2)c1 [Compound B-13] | IC50 [1, 6]: 0.1 to 1 µM; IC50 [2, 7]: > 1 µM
40 | 0.1 to 1 µM | 0.1 to 1 µM | Cc1ccnc(Nc2cccc(-c3cnc(C(=O)NCCO)s3)n2)c1 [Compound A-29] | 
41 |  |  | COC(=O)c1ccc(-c2cccc(Nc3cc(C)ccn3)n2)s1 [Compound B-19] | IC50 [1, 6]: 0.1 to 1 µM; IC50 [2, 7]: > 1 µM
42 | 0.1 to 1 µM | > 1 µM | Cc1ccnc(Nc2cccc(-c3cnc([C@@H](O)CCC(=O)O)s3)n2)c1 [Compound A-107] | 
